Measured values taken from patent US10196454B2, “Anti-PMEL17 antibodies and immunoconjugates” (GENENTECH, INC., priority 2012, dated 2019).
Read-outs that look alike come from different tables or passages of the source.

What was measured:
[1] = tested on: in vivo derived resistant UACC-257X2.2 cells; assay: In vitro cell proliferation (CellTiter-Glo, five days); format: cell-based; conditions: in vivo derived resistant line
Procedure: Tumor #359 was harvested and the cells were dissociated for growth in vitro (referred to herein as in vivo-derived resistant UACC-257X2.2 cells).
(§1) In vitro cell proliferation of the cell lines in the presence of the immunoconjugates was assessed. Cells were plated at 1,500 cells per well in 50 μL of normal growth medium in 96-well clear-bottom plates. Twenty-four hours later, an additional 50 μL of culture medium with serial dilutions of immunoconjugates were added to triplicate wells. Five days later, cell survival was determined using CellTiter-Glo Luminescent Cell Viability Reagent (G7572, Promega Corporation, Madison, Wis.) using an EnVision 2101 Mutilabel Reader (Perkin-Elmer, Waltham, Mass.).

[2] = tested on: parental UACC-257X2.2 cells; assay: as above; format: cell-based; conditions: parental line
Procedure: as §1

[3] = tested on: in vitro derived resistant UACC-257X2.2 cells; assay: as above; format: cell-based; conditions: in vitro derived resistant line
Procedure: For resistance developed in vitro, UACC-257X2.2 cells were adapted to increasing concentrations of anti-ETBR-vc-MMAE in culture dishes over the course of two months.
as §1

human PMEL17 = assay: Monoclonal antibody epitope mapping with PMEL17 deletion mutants (immunoblot, FACS); format: binding; conditions: N-terminal deletions by immunoblot; C-terminal deletions in 293 cells by FACS
Procedure: All the constructs for epitope mapping were made by PCR amplification of each fragment and subcloning into either pRKtkneo vector with an N-terminal gD tag, or pRKtkneo vector with an N-terminal gD tag and a C-terminal GPI anchor. Transfections were performed using FuGene 6 (Roche Applied Science), and empty vector was used as control. Full-length human PMEL17 was subcloned into pRKtkneo vector with an N-terminal gD tag.
A signal sequence and a gD epitope tag were fused to the N-terminal sequence of a series of deletion mutants, which were then expressed in mammalian cells and the lysates analyzed by immuoblotting for reactivity with 17A9 or 77E6. The N-terminal deletions tested included Δ100, Δ255, Δ292, Δ315, Δ444, Δ515, and Δ567.
In addition, C-terminal deletions with an N-terminal gD tag and a C-terminal GPI anchor were transiently transfected into 293 cells and analyzed for antibody binding by FACS. The C-terminal deletions tested included PMEL1725-125, PMEL1725-105, PMEL1725-85, PMEL1725-65, and PMEL1725-45. Finally, a PMEL17 fragment comprising the region from amino acid 515 through the transmembrane domain, but lacking the cytoplasmic region (“Δ515-C”) and a PMEL17 fragment comprising just the cytoplasmic domain with an N-terminal gD tag and a C-terminal GPI anchor were analyzed by immuoblotting for reactivity with 77E6.

[4] = tested on: SK-MEL-23 melanoma cell line xenograft; assay: SK-MEL-23 melanoma cell line xenograft; format: in vivo, mice; conditions: single IV injection, 6 mg/kg
Procedure: The efficacy of the anti-PMEL17 ADCs was investigated using an SK-MEL-23 melanoma cell line xenograft model. Female CRL Nu/Nu mice from Charles River Laboratories were inoculated subcutaneously in the dorsal right flank with five million SK-MEL-23 cells in HBSS with Matrigel. […] When tumor volumes reached ˜200 mm^3 (day 0), animals were randomized into groups of 10 each and administered a single IV injection of 2 or 6 mg/kg 17A9 ADC. MMAE conjugated to anti-GP120 antibody was used as a control. Tumor volumes were measured twice per week until study end. Tumor volumes were determined using digital calipers (Fred V. Fowler Company, Inc.) using the formula (L×w×W)/2. Tumor growth inhibition (% TGI) was calculated as the percentage of the area under the fitted curve (AUC) for the respective dose group per day in relation to the vehicle, such that % TGI=100×[1−(AUCtreatment/day)/(AUCvehicle/day)]. Curve fitting was applied to Loge transformed individual tumor volume data using a linear mixed-effects model using the R package nlme, version 3.1-96 in R v2.10.1.

normal human melanocytes = assay: Toxicity of anti-PMEL17 ADC in normal melanocytes (CellTiter-GloII, five days); format: cell-based; conditions: versus SK-MEL-5 and SK-MEL-23, five days
Procedure: Finally, SK-MEL-5 and SK-MEL-23 melanoma cells, or normal human melanocytes, were incubated with serial dilutions of the 17A9 ADC and five days later cell numbers were determined using CellTiter-GloII.

[5] = tested on: PC3 cells stably expressing PMEL17; assay: Inhibition of in vitro cell proliferation (CellTiter-GloII); format: cell-based
Procedure: Proliferation in the presence of 17A9 ADC was assessed using PMEL17+ melanoma cells and PC3 cells stably expressing PMEL17 plated at 2,000 per well in 50 μL of normal growth medium in 96-well clear-bottom plates (PerkinElmer). Twenty-four hours later, an additional 50 μL of culture medium with serial dilutions of 17A9 ADC were added to triplicate wells. Three or five days later, cell numbers were determined using CellTiter-GloII (Promega Corp.) and with an EnVision 2101 Mutilabel Reader (PerkinElmer).

[6] = tested on: vector control PC3 parental cell line; assay: as above; format: cell-based; conditions: out to 10 μg/ml of ADC
[7] = linker-drug without antibody, read-out: EC50

MC-vc-PAB-MMAE was tested, and the EC50 [1, 7] was 0.77 nM, the EC50 [2, 7] was 0.28 nM and the EC50 [3, 7] was 3.5 nM.

MC-PNU-159682 was tested, and the EC50 [1, 7] was 0.133 nM, the EC50 [2, 7] was 0.18 nM and the EC50 [3, 7] was 0.15 nM.

For MC-vc-PAB-PNU-159682, the EC50 [1, 7] was 4.2 nM, the EC50 [2, 7] was 2 nM and the EC50 [3, 7] was 6.6 nM.

B1: 14C10: anti-PMEL17 antibody that binds to the same deletion fragments as 17A9 (antibody, V domains shown)
VH: QVTLKESGPGILQPSQTLSLTCSFSGFSLSTSAMGIGWIRQPSGKGLEWLAHIWWDDDKRYNPALKSRLTISKDTSRNQVFLKIASVDTADTATYFCARIDGIYDGSFYAMDYWGQGTSVTVSS
VL: DIVLTQSPASLAVSLGQRATISCRASESVDSYGNSFMHWYQQKPGQPPKLLIYRASNLESGIPARFSGSGSRTDFTLTINPVEADDVANYYCQQSNEDYTFGGGTKLEIK
In the case of B1, the “binding to PMEL17 deletion mutants” value (human PMEL17) is reported as “binds to the same deletion fragments as 17A9”.

B2: 17A9 ADC (conjugate)
VH: EVQLQQSGPELVKPGASMKISCKSSGYSFTRYTMNWVKQSHGKNLEWIGVINPYNGGTVYNQKFKGKATLTVDKSSSTAYMELLSLTSEDSAVYYCARTDYDGYAMDYWGQGTSVTVSS
VL: DVQITQSPSYLAASPGETITINCRATKSISKYLAWYQEQPGKTNNLLIYSGSTLQSGIPSRFSGSGSGTDFTLTISSLEPEDFAMYYCQQHNEYPYTFGSGTKLEIK
B2 was tested, and the “effect on tumor growth” value [4] was “retard tumor growth for several weeks”, the “IC50 on normal melanocytes relative to melanoma cell lines” value (normal human melanocytes) was roughly 100 fold and the cell killing [5] was “effectively killed”. For the same molecule, the cell killing [6] was “no killing”.

B3: anti-PMEL17-vc-MMAE: anti-PMEL17 ADC with protease-cleavable val-cit linker and MMAE (17A9 or ch17A9 with MC-vc-PAB-MMAE) (conjugate)
VH: B2 VH
VL: B2 VL
With B3 the EC50 ([1]; immunoconjugates) was 0.119 µg/mL, the EC50 ([2]; immunoconjugates) was 0.033 µg/mL and the EC50 ([3]; immunoconjugates) was 0.764 µg/mL.
